Measured values published in patent publication US20240174611A1 (Rappta Therapeutics Oy, priority 2021, published 2024).

Legend:
HCC1937 cells = assay: HCC1937 cell viability assay (MTS); type: cell-based; conditions: Homo sapiens, HCC1937 cell line (footnote a), 48 hours treatment
Experimental: HCC1937 cell line HCC1937 cells are plated in a 96 well plate format at a density of 10,000 cells per well. After incubation overnight, cells are treated with compounds 1-100 at following concentrations: 80, 40, 20, 10, 5, 2.5, 1.25 μM. Compound concentrations are prepared in RPMI via serial dilutions from a starting stock of 80 mM. 48 hours after compound treatment, cell viability is assessed using the Promega CellTiter 96 aqueous one proliferation assay (Promega G3582, MTS assay) according to manufacturer's protocol.
(§1) The cell viability data was analyzed with GraphPad Prism software. The values were log transformed and analyzed with non-linear regression (curve-fit) using log(inhibitor) vs. response—variable slope (four parameters) and constraining the bottom to equal zero. Unless otherwise indicated, the GI50 values provided in Table 35 correspond to the LNCaP cell viability assays.

LNCaP cells = assay: LNCaP cell viability assay (MTS); type: cell-based; conditions: Homo sapiens, LNCaP, 48 h, LNCaP cell line, 48 hours treatment
Experimental: LNCaP cell line was used for the cell viability assay. LNCaP cells were plated in 96-well plates at a density of 5000 cells per well. After 24 hours of plating, the cells were treated with increasing doses of compound 1-100 ranging from 1 μM to 80 μM. Relative cell numbers were analyzed after 48 hours using 3-(4,5-dimethylthiazol-2-yl)-5-(3-carboxymethoxyphenyl)-2-(4-sulfophenyl)-2H-tetrazolium (MTS) assay (Promega) according to the manufacturer's instructions.
as §1

Row | SMILES | GI50 (HCC1937 cells) [µM] | GI50 (LNCaP cells) [µM]
1 | CC(C)CCN1CCC(NS(=O)(=O)c2ccc(OC(F)(F)F)cc2)(c2ccc(Cl)cc2)C1 (stereo not drawn) [Compound 76, N-(3-(4-chlorophenyl)-1-isopentylpyrrolidin-3-yl)-4-(trifluoromethoxy)benzenesulfonamide] | 19.9 | –
2 | Nc1cc(S(=O)(=O)NC2(c3ccc(F)cc3)CCNC2)ccc1OC(F)(F)F (stereo not drawn) [Compound 92, 3-amino-N-(3-(4-fluorophenyl)pyrrolidin-3-yl)-4-(trifluoromethoxy)benzenesulfonamide] | 50.3 | –
3 | O=S(=O)(NC1(c2ccc(F)cn2)CCNCC1)c1ccc(OC(F)(F)F)cc1 [Compound 65, N-(4-(5-fluoropyridin-2-yl)piperidin-4-yl)-4-(trifluoromethoxy)benzenesulfonamide] | 75.1 | –
4 | Cc1cc(C2(NS(=O)(=O)c3ccc(OC(F)(F)F)c(N)c3)CCNC2)ccc1F (stereo not drawn) [Compound 93, 3-amino-N-(3-(4-fluoro-3-methylphenyl)pyrrolidin-3-yl)-4-(trifluoromethoxy)benzenesulfonamide] | – | 65.5
5 | COC(=O)[C@@H]1Cc2ccccc2[C@@H]1NS(=O)(=O)c1ccc(OC(F)(F)F)cc1 (racemic) [Compound 4] | – | 40.4
6 | O=S(=O)(NC1(c2ccc(Cl)cc2)CCN(Cc2ccccc2)C1)c1ccc(Oc2ccc(C(F)(F)F)cc2)cc1 (stereo not drawn) [Compound 54, N-(1-benzyl-3-(4-chlorophenyl)pyrrolidin-3-yl)-4-(4-(trifluoromethyl)phenoxy)benzenesulfonamide] | – | 26.8
7 | O=S(=O)(NC1CCOc2c(F)ccc(F)c21)c1ccc(OC(F)(F)F)cc1 (stereo not drawn) [Compound 10, N-(5,8-difluorochroman-4-yl)-4-(trifluoromethoxy)benzene-sulfonamide] | – | 67.5
8 | CC(C)Oc1ccc(S(=O)(=O)NC2(c3ccc(F)cc3)CCNCC2)cn1 [Compound 77, N-(4-(4-fluorophenyl)piperidin-4-yl)-6-isopropoxypyridine-3-sulfonamide] | – | 41.7
9 | O=S(=O)(NC1(c2ccc(Cl)cc2)CCNCC1)c1ccc(OC(F)(F)F)cc1 [Compound 45, N-(4-(4-chlorophenyl)piperidin-4-yl)-4-(trifluoromethoxy)benzenesulfonamide] | – | 11
10 | O=S(=O)(NC1(c2ccccc2)CCN(Cc2ccccc2)C1)c1ccc(OC(F)(F)F)cc1 (stereo not drawn) [Compound 35, N-(1-benzyl-3-phenylpyrrolidin-3-yl)-4-(trifluoromethoxy)benzene-sulfonamide] | – | 38.7
11 | Cc1noc(C)c1S(=O)(=O)NCC1(NS(=O)(=O)c2ccc(OC(F)(F)F)cc2)CCCCC1 [Compound 33] | – | 53
12 | CC(C)Oc1ccc(S(=O)(=O)NC2(c3ccc(F)cc3)CCNC2)cc1 (stereo not drawn) [Compound 78, N-(3-(4-fluorophenyl)pyrrolidin-3-yl)-4-isopropoxybenzenesulfonamide] | – | 70.5
13 | O=C1C(NS(=O)(=O)c2ccc(OC(F)(F)F)cc2)CCCN1Cc1cccc(C(F)(F)F)c1 (stereo not drawn) [Compound 16] | – | 34.4
14 | CN=S(=O)(NC1(c2ccc(Cl)cc2)CCNC1)c1ccc(OC(F)(F)F)cc1 (stereo not drawn) [Compound 68, N-(3-(4-chlorophenyl)pyrrolidin-3-yl)-N′-methyl-4-(trifluoromethoxy)benzenesulfonimidamide] | – | 27.2
15 | N=S(=O)(NC1(c2ccc(F)cc2)CCNC1)c1ccc(OC(F)(F)F)cc1 (stereo not drawn) [Compound 84, N-(3-(4-fluorophenyl)pyrrolidin-3-yl)-4-(trifluoromethoxy)benzenesulfonimidamide] | 75.1 | –
